Test system: DNA polymerase
Conditions: for 2SS characteristics: two slow step character, equals K1/K2; for K1 (S-1) / K2 (S-1): two slow step results, single molecule DNA sequencing, cyanine dye conjugate
Excerpt: In some cases, the system will have four kinetically observable (slow) reaction steps, two slow steps in a bright phase and two slow steps in a dark phase.

Q: How did the 2SS characteristics turn out when CC1(C)C(/C=C/C=C/C=C2/N(CCCCCC(=O)NC(CCC(=O)O)C(=O)NC(CCC(=O)O)C(=O)NCCCCCCOP(=O)(O)OP(=O)(O)OP(=O)(O)OC[C@H]3O[C@@H](n4ccc(N)nc4=O)CC3O)c3ccc4c(S(=O)(=O)O)cc(S(=O)(=O)O)cc4c3C2(C)C)=[N+](CCCS(=O)(=O)[O-])c2ccc3c(S(=O)(=O)O)cc(S(=O)(=O)O)cc3c21 (stereo partly drawn) [2Glu-tri-phosphate] was run?
A: 7.3

Q: What about the “K1 (S-1)” value of the same compound?
A: 7.898 S-1

Q: What about the “K2 (S-1)” value of the same compound?
A: 1.082 S-1

Q: CC1(C)C(/C=C/C=C/C=C2/N(CCCCCC(=O)NC(CCCCN)C(=O)NC(CCCCN)C(=O)NCCCCCCOP(=O)(O)OP(=O)(O)OP(=O)(O)OC[C@H]3O[C@@H](n4ccc(N)nc4=O)CC3O)c3ccc4c(S(=O)(=O)O)cc(S(=O)(=O)O)cc4c3C2(C)C)=[N+](CCCS(=O)(=O)[O-])c2ccc3c(S(=O)(=O)O)cc(S(=O)(=O)O)cc3c21 (stereo partly drawn) [2Lys-tri-phosphate] was tested. Which 2SS characteristics did it give?
A: 6.5

Q: What about the “K1 (S-1)” value of the same compound?
A: 2.645 S-1

Q: What about the “K2 (S-1)” value of the same compound?
A: 0.406 S-1

— patent US9499862B2, “Phospholinked dye analogs with an amino acid linker” (Pacific Biosciences of California, Inc., priority 2010, dated 2016)
